Reference: article PMC12110804, “Molecular Characterization and Functional Analysis of Odorant-Binding Proteins in Ectropis grisescens” (International Journal of Molecular Sciences, 2025)
“Also recorded” adds a separate entry of the source. Like-named read-outs stand apart in the source and are kept apart here.

Assays:
EgriGOBP2 [1] = target: T1, EgriGOBP2 (Ectropis grisescens, UniProt A0A977IVV0); assay: Fluorescence competitive binding assay (1-NPN displacement) with recombinant EgriGOBP2; conditions: for binding to EgriGOBP2 (in words, displacement of 1-NPN fluorescence): non-binding ligands
Method: The excitation wavelength was 337 nm, and the emission spectrum ranged from 370 to 550 nm. […] The binding curves were linearized using Scatchard plots, based on fluorescence intensity values relative to the maximum fluorescence emissions.
The dissociation constants (Ki) of each ligand were calculated with the following equation: Ki = [IC50]/(1 + [1-NPN]/K1-NPN).

[2] = test system: GOBP2 in Ectropis obliqua; design: method as in PMID 29543772; conditions: host odors; cited from earlier work
Sitophilus zeamais = test system: Sitophilus zeamais; design: method as in PMID 31813390; conditions: cited from earlier work
C. pallens = test system: C. pallens; design: method as in PMID 25810363; conditions: glass Y-tube olfactometer; cited from earlier work
CpalOBP2 = test system: CpalOBP2; design: method as in PMID 25810363; conditions: cited from earlier work
[3] = test system: Frankliniella occidentalis, Frankliniella intonsa, and Thrips palmi Karny; design: method as in PMID 33346361; conditions: Y-tube olfactometer bioassays; cited from earlier work
RpedOBP38 = test system: RpedOBP38; design: method as in PMID 39835200; conditions: plant essential oil-derived volatiles with repellent activity; cited from earlier work
AgamOBP5 = test system: AgamOBP5; design: method as in PMID 36921814; conditions: cited from earlier work
EgriGOBP2 [4] = target: T1, EgriGOBP2; assay: Binding of fluorescent probe 1-NPN to recombinant EgriGOBP2 (binding curve, Scatchard plot); conditions: 2 µM protein in 20 mM Tris-HCl pH 7.4, 1-NPN 0–16 µM, read-out: dissociation constant (Kd) of 1-NPN
Method: The binding affinities of target proteins were measured with an F-7000 fluorescence spectrophotometer (Hitachi, Tokyo, Japan) using a 1 cm light path quartz cuvette, and 1-N-phenyl-naphthylamine (1-NPN) was used as a fluorescent probe. The excitation wavelength was 337 nm, and the emission spectrum ranged from 370 to 550 nm. A total of 24 volatile compounds, including host volatiles and plant essential oil-derived volatiles, were selected for fluorescence competitive binding assays (Table 2). First, the binding affinities of 1-NPN to the target proteins were determined. The protein solutions (2 µM in 20 mM Tris-HCl, pH = 7.4) were titrated with 1-NPN to final concentrations ranging from 0 to 16 µM. The binding curves were linearized using Scatchard plots, based on fluorescence intensity values relative to the maximum fluorescence emissions. Next, each ligand (at concentrations of 0–16 µM, prepared at a 1 mM stock concentration) was added to the 2 µM EgriGOBP2/1-NPN mixture, and competitive binding curves were plotted based on the fluorescence intensity values from three replicates.
The dissociation constants (Ki) of each ligand were calculated with the following equation: Ki = [IC50]/(1 + [1-NPN]/K1-NPN). […]

[5] = EgriGOBP2 Ki, Ki = [IC50]/(1 + [1-NPN]/K1-NPN), 2 µM EgriGOBP2/1-NPN mixture, pH 7.4
[6] = displacement of 1-NPN from 2 µM EgriGOBP2/1-NPN mixture, 20 mM Tris-HCl pH 7.4, ligand 0–16 µM, read-out: EgriGOBP2 IC50
[7] = EgriGOBP2 Ki (dash cells), “-”: no detectable Ki
[8] = Ki = [IC50]/(1 + [1-NPN]/K1-NPN), 2 µM EgriGOBP2/1-NPN mixture, pH 7.4, read-out: EgriGOBP2 Ki
[9] = cells printed as “-”: IC50 could not be calculated, read-out: EgriGOBP2 IC50 (dash cells)
[10] = “-”: no detectable Ki, read-out: EgriGOBP2 Ki (dash cells)

T1 sequence (A0A977IVV0 entry or part of it): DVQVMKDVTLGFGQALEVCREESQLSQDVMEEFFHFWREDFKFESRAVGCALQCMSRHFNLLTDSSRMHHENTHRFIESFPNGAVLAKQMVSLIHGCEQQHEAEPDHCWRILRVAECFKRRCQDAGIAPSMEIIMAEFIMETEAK

Question: For COC(=O)c1ccccc1O [Methyl salicylate], which IC50 (EgriGOBP2 [1]) is on record?
Answer: The IC50 was 17.3 µM.

Question: And the Ki (EgriGOBP2 [1]; [5])?
Answer: The Ki was 15.6 µM.

Question: What about the “competitive binding to Ectropis obliqua GOBP2 (in words)” value [2] of the same compound?
Answer: The value was “competitively bind”.

Question: Which results are given for C=C(C)[C@H]1CC=C(C)C(=O)C1 [(S)-(+)-carvone]?
Answer: binding affinity to EgriGOBP2 (class in words) (EgriGOBP2 [1]): strong (strong (6 µM < Ki ≤ 22 µM)); IC50 (EgriGOBP2 [1]; [6]): 5.36 µM

Question: What does the source list for CC(C)=CCCC(C)=CC=O (mixture of isomers) [Citral]?
Answer: IC50 (EgriGOBP2 [1]): 9.12 µM; Ki (EgriGOBP2 [1]; [5]): 8.23 µM

Question: Which “repellency to Sitophilus zeamais (in words)” value (Sitophilus zeamais) does the source give for C=C(C)C1CC=C(C)C(=O)C1 (centres unmarked) [Carvone] here?
Answer: Its value is “strongly repellent”.

Question: What does the source list for O=Cc1ccccc1 [Benzaldehyde]?
Answer: IC50 (EgriGOBP2 [1]): > 16 µM; Ki (EgriGOBP2 [1]; [7]): > 14.4 µM; binding to EgriGOBP2 (in words, displacement of 1-NPN fluorescence) (EgriGOBP2 [1]): negligible binding; also recorded: did not exhibit binding affinity; competitive binding to Ectropis obliqua GOBP2 (in words) [2]: competitively bind

Question: What does the source list for CC(=O)OCc1ccccc1 [Benzyl acetate]?
Answer: Ki (EgriGOBP2 [1]; [8]): 13 µM; IC50 (EgriGOBP2 [1]; [6]): 14.3 µM

Question: For farnesene, which “behavioral response of C. pallens (in words)” value (C. pallens) is on record?
Answer: Its value is “significant and strong repellent behavioral responses”.

Question: What about the “binding affinity for CpalOBP2 (in words)” value (CpalOBP2) of the same compound?
Answer: The value was “strong and high binding affinities”.

Question: With CC/C=C\CCOC(C)=O [Cis-3-hexenyl acetate] as the compound, how does the Ki (EgriGOBP2 [1]; [8]) read?
Answer: Its Ki is 13.1 µM.

Question: What about the IC50 (EgriGOBP2 [1]; [6]) of the same compound?
Answer: The IC50 was 14.5 µM.

Question: Which Ki (EgriGOBP2 [1]; [8]) does the source give for CC12CCC(CC1)C(C)(C)O2 [Eucalyptol] here?
Answer: Its Ki is under 10 µM.

Question: And the IC50 (EgriGOBP2 [1]; [6])?
Answer: The IC50 was 9.36 µM.

Question: And the “repellent activity against three thrip species (in words)” value [3]?
Answer: Its value is “significant repellent activity”.

Question: With CC1=CC[C@](O)(C(C)C)CC1 [(+) -4-terpineol] as the compound, how does the “binding to RpedOBP38 (in words)” value (RpedOBP38) read?
Answer: The value was “found to bind”.

Question: Which IC50 (EgriGOBP2 [1]; [9]) does the source give for CCCCCCCCC=O [Nonanal] here?
Answer: The IC50 was over 16 µM.

Question: What about the “binding to EgriGOBP2 (in words, displacement of 1-NPN fluorescence)” value (“binding to EgriGOBP2” for short) (EgriGOBP2 [1]) of the same compound?
Answer: Its value is “negligible binding; also recorded: did not exhibit binding affinity”.

Question: What about the Ki (EgriGOBP2 [1]; [10]) of the same compound?
Answer: The Ki was over 14.4 µM.

Question: Which “binding affinity to EgriGOBP2 (class in words)” value (EgriGOBP2 [1]) does the source give for C=CC(C)=CCC=C(C)C [Ocimene] here?
Answer: The value was “moderate (moderate (22 µM < Ki ≤ 40 µM))”.

Question: And the Ki (EgriGOBP2 [1]; [8])?
Answer: Its Ki is 18 µM.

Question: And the IC50 (EgriGOBP2 [1]; [6])?
Answer: The IC50 was 19.9 µM.

Question: With O=C/C=C/c1ccccc1 [Cinnamaldehyde] as the compound, how does the IC50 (EgriGOBP2 [1]) read?
Answer: Its IC50 is over 16 µM.

Question: And the Ki (EgriGOBP2 [1]; [7])?
Answer: The Ki was over 14.4 µM.

Question: And the “binding to EgriGOBP2” value (EgriGOBP2 [1])?
Answer: The value was “did not bind”.

Question: Which results are given for Cc1ccc(C(C)C)cc1O [Carvacrol]?
Answer: IC50 (EgriGOBP2 [1]): 23.6 µM; Ki (EgriGOBP2 [1]; [5]): 21.3 µM; binding to RpedOBP38 (in words) (RpedOBP38): found to bind; binding to AgamOBP5 (in words) (AgamOBP5): strong binder

Question: Which results are given for C=CC(O)CC (centres unmarked) [1-penten-3-ol]?
Answer: Ki (EgriGOBP2 [1]; [8]): 40.6 µM; IC50 (EgriGOBP2 [1]; [6]): 44.8 µM

Question: What does the source list for C=CC(C)(O)CCC=C(C)C (centres unmarked) [Linalool]?
Answer: IC50 (EgriGOBP2 [1]): 11.9 µM; Ki (EgriGOBP2 [1]; [5]): 10.8 µM

Question: With C=CCc1ccc(OC)cc1 [4-allylanisole] as the compound, how does the IC50 (EgriGOBP2 [1]) read?
Answer: The IC50 was 8.1 µM.

Question: What about the Ki (EgriGOBP2 [1]; [5]) of the same compound?
Answer: The Ki was 7.31 µM.

Question: With C=CCc1ccc(O)c(OC)c1 [Eugenol] as the compound, how does the IC50 (EgriGOBP2 [1]) read?
Answer: Its IC50 is 9.28 µM.

Question: And the Ki (EgriGOBP2 [1]; [5])?
Answer: Its Ki is 8.38 µM.

Question: What does the source list for CCCCCCCCCC=O [Decanal]?
Answer: IC50 (EgriGOBP2 [1]; [9]): > 16 µM; binding to EgriGOBP2 (in words, displacement of 1-NPN fluorescence) (EgriGOBP2 [1]): negligible binding; Ki (EgriGOBP2 [1]; [10]): > 14.4 µM

Question: With CCC/C=C/C=O [E-2-hexenal] as the compound, how does the IC50 (EgriGOBP2 [1]) read?
Answer: Its IC50 is over 16 µM.

Question: What about the Ki (EgriGOBP2 [1]; [7]) of the same compound?
Answer: The Ki was over 14.4 µM.

Question: And the “binding to EgriGOBP2” value (EgriGOBP2 [1])?
Answer: Its value is “negligible binding; also recorded: did not exhibit binding affinity”.

Question: What does the source list for OCc1ccccc1 [Benzyl alcohol]?
Answer: IC50 (EgriGOBP2 [1]): 30 µM; Ki (EgriGOBP2 [1]; [5]): 27 µM

Question: With CC(C)=CCC/C(C)=C/CC/C(C)=C/CO [farnesol] as the compound, how does the “behavioral response of C. pallens (in words)” value (C. pallens) read?
Answer: Its value is “significant and strong repellent behavioral responses”.

Question: And the “binding affinity for CpalOBP2 (in words)” value (CpalOBP2)?
Answer: Its value is “strong and high binding affinities”.

Question: With CCCCCCO [n-hexyl alcohol] as the compound, how does the Ki (EgriGOBP2 [1]; [8]) read?
Answer: Its Ki is 21.2 µM.

Question: What about the IC50 (EgriGOBP2 [1]; [6]) of the same compound?
Answer: The IC50 was 23.5 µM.

Question: Which Kd (EgriGOBP2 [4]) does the source give for c1ccc(Nc2cccc3ccccc23)cc1 [1-NPN, 1-N-phenyl-naphthylamine] here?
Answer: The Kd was 9.28 µM.

Question: Which results are given for C=CC(C)(O)CCC=C(C)CCC=C(C)C (mixture of isomers) [Nerolidol]?
Answer: Ki (EgriGOBP2 [1]; [8]): 7.93 µM; IC50 (EgriGOBP2 [1]; [6]): 8.79 µM

Question: For CC(=O)OC/C=C(\C)CCC=C(C)C [Geranyl acetate], which Ki (EgriGOBP2 [1]; [8]) is on record?
Answer: The Ki was 22.3 µM.

Question: And the IC50 (EgriGOBP2 [1]; [6])?
Answer: The IC50 was 24.7 µM.

Question: With CC/C=C\CCOC(=O)CCCCC [Cis-3-hexenyl caproate] as the compound, how does the Ki (EgriGOBP2 [1]; [8]) read?
Answer: Its Ki is 14 µM.

Question: And the IC50 (EgriGOBP2 [1]; [6])?
Answer: Its IC50 is 15.5 µM.

Question: What does the source list for CC/C=C\CCOC(=O)CCC [Cis-3-hexenyl tyrate]?
Answer: binding affinity to EgriGOBP2 (class in words) (EgriGOBP2 [1]): moderate (moderate (22 µM < Ki ≤ 40 µM)); Ki (EgriGOBP2 [1]; [8]): 18.6 µM; IC50 (EgriGOBP2 [1]; [6]): 20.6 µM

Question: With C=C(C)[C@@H]1CC=C(C)C(=O)C1 [L(-)-carvone] as the compound, how does the Ki (EgriGOBP2 [1]; [8]) read?
Answer: Its Ki is 11.6 µM.

Question: What about the IC50 (EgriGOBP2 [1]; [6]) of the same compound?
Answer: Its IC50 is 12.9 µM.

Question: And the “binding to RpedOBP38 (in words)” value (RpedOBP38)?
Answer: Its value is “found to bind”.
